Patent US20190031599A1, “INDANE DERIVATIVES AS MGLUR7 MODULATORS” (Takeda Pharmaceutical Company Limited, priority 2016, published 2019)

Biological target: T1, human mGluR7 (Homo sapiens, UniProt Q14831)
T1 construct: expressed in transfected cells
Experiment: mGluR7 assay: CRE-directed luciferase reporter gene assay, reduction of forskolin stimulated cAMP production
Format: cell-based
Details: stable CHO cell line expressing the CRE-luc reporter and human mGluR7 genes; decrease of forskolin stimulated luminescence; 10-point concentration-response, duplicate wells
Description: The ability of the test compounds to activate mGluR7 was determined by their ability to reduce forskolin stimulated cAMP production. Compounds were assessed in a CRE-directed luciferase reporter gene assay, using a stable CHO cell line expressing the CRE-luc reporter and human mGluR7 genes. In this cell line, production of cAMP stimulated the transcription of the luciferase gene and luciferase activity was then measured in a luminescent enzyme assay (Steady Glo assay; Promega E2550). Activation of mGluR7 decreased the forskolin stimulated luminescence signal.
The day prior to the assay, compounds were serially diluted in DMSO (100× final assay concentration (FAC)), in 384-well plates which were then stored in the dark at room temperature (RT) until use. Cells were seeded at 12.5 k/well in white, clear bottom 384-well plates (Corning 3707) and left for one hour at RT followed by an overnight incubation (37° C.). The following day, the DMSO compound plate was diluted 1:20 (5× FAC) in Opti-MEM I (Life Technologies 11058021). The growth media was removed from the cell plate and replaced with 15 μl Opti-MEM I, followed by a 5 μl addition from the 5× compound plate and a fifteen minute incubation (37° C.). Forskolin (Sigma F3917) was then added to the wells (5 μl of 2.5 μM) and the plate was incubated for five hours (37° C.). During this incubation, the Steady Glo Substrate reagent was warmed to 37° C. Aliquots (11 ml; stored at −20° C.) of this reagent were prepared by dissolving the contents of 1 vial of lyophilised substrate in 100 ml Steady-Glo buffer. A 25 μl addition of the substrate was made to all wells and the plate was incubated for thirty minutes at RT, on a plate shaker (300 rpm; in the dark). Luminescence was then measured using the EnVision Multilabel Reader (Perkin Elmer).
Compound activity was examined using a 10-point, half log concentration-response range and each concentration was tested in duplicate wells. Luminescence values were normalised to ‘maximum’ (forskolin alone) and ‘minimum’ (forskolin in the presence of tool mGluR7 agonist) controls.

T1 sequence (Q14831 35-915): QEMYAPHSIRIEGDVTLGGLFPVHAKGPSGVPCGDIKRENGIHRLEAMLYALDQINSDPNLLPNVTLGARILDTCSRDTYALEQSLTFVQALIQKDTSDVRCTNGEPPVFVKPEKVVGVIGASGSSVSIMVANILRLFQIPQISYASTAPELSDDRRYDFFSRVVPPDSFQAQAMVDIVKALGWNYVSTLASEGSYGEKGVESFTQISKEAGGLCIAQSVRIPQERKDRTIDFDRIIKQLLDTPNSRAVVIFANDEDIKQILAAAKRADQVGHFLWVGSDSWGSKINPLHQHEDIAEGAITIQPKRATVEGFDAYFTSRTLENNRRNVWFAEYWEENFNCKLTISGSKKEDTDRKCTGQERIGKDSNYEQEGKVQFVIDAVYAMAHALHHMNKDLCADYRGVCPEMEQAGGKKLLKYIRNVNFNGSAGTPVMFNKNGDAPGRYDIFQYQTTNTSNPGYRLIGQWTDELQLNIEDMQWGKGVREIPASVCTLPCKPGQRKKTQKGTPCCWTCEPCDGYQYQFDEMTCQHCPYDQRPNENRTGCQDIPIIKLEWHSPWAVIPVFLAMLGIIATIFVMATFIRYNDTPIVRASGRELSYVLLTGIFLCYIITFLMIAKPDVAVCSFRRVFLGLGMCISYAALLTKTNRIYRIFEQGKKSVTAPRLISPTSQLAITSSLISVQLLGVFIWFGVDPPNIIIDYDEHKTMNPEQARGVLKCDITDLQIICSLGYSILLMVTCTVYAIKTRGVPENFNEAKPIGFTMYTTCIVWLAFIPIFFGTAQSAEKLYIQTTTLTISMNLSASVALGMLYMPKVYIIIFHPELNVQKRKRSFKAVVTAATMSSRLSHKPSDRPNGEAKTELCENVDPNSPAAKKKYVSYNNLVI

| EC50 | Compound |
| --- | --- |
| 1560 nM | C[C@H](C(=O)NC1Cc2ccccc2C1O)c1ccccc1 (single isomer, unassigned) [Example 6] |
| 57 nM | COC1c2ccccc2CC1NC(=O)[C@@H](C)c1ccccc1 (single isomer, unassigned) [Example 8] |
| 37 nM | COC1c2ccccc2CC1NC(=O)[C@@H](C)c1ccccc1 (single isomer, unassigned) [Example 9] |
| 25 nM | CCC(C(=O)N[C@H]1Cc2ccccc2[C@@H]1N)c1ccc(F)cc1F (single isomer, unassigned) [Example 15] |
| 747 nM | CCC(C(=O)N[C@H]1Cc2ccccc2[C@@H]1N)c1ccc(F)cc1F (single isomer, unassigned) [Example 16] |
| 64 nM | COC1c2ccccc2CC1NC(=O)[C@@H](C)c1ccc(F)cc1F (single isomer, unassigned) [Example 26] |
| 21 nM | COC1c2ccccc2CC1NC(=O)[C@@H](C)c1ccc(F)cc1F (single isomer, unassigned) [Example 27] |
| 10 nM | CCOC1c2ccccc2CC1NC(=O)C(C)c1ccc(F)cc1F (single isomer, unassigned) [Example 29] |
| 22 nM | CCOC1c2ccccc2CC1NC(=O)C(C)c1ccc(F)cc1F (single isomer, unassigned) [Example 30] |
| 14 nM | CCOC1c2ccccc2CC1NC(=O)[C@@H](C)c1ccc(F)cc1 (single isomer, unassigned) [Example 32] |
| 39 nM | CCOC1c2ccccc2CC1NC(=O)[C@@H](C)c1ccc(F)cc1 (single isomer, unassigned) [Example 33] |
| 38 nM | COC1c2ccccc2CC1NC(=O)[C@@H](C)c1ccc(F)cc1 (single isomer, unassigned) [Example 37] |
| 16 nM | COC1c2ccccc2CC1NC(=O)[C@@H](C)c1ccc(F)cc1 (single isomer, unassigned) [Example 38] |
| 17 nM | CC[C@H](C(=O)NC1Cc2ccccc2C1OC)c1ccc(F)cc1 (single isomer, unassigned) [Example 45] |
| 11 nM | CC[C@H](C(=O)NC1Cc2ccccc2C1OC)c1ccc(F)cc1 (single isomer, unassigned) [Example 46] |
| 336 nM | CC(C)(C)OC(=O)N[C@H]1c2ccccc2C[C@@H]1NC(=O)C(c1ccc(F)cc1F)n1ccccc1=O (single isomer, unassigned) [Example 48] |
| 133 nM | CC(C)(C)OC(=O)N[C@H]1c2ccccc2C[C@@H]1NC(=O)C(c1ccc(F)cc1F)n1ccccc1=O (single isomer, unassigned) [Example 49] |
| 3920 nM | N[C@H]1c2ccccc2C[C@@H]1NC(=O)C(c1ccc(F)cc1F)n1ccccc1=O (single isomer, unassigned) [Example 50] |
| 565 nM | N[C@H]1c2ccccc2C[C@@H]1NC(=O)C(c1ccc(F)cc1F)n1ccccc1=O (single isomer, unassigned) [Example 51] |
| 1 nM | COC1c2ccccc2CC1NC(=O)[C@@H](NCC1CC1)c1ccc(F)cc1 (single isomer, unassigned) [Example 55] |
| 1 nM | COC1c2ccccc2CC1NC(=O)[C@@H](NCC1CC1)c1ccc(F)cc1 (single isomer, unassigned) [Example 56] |
| 704 nM | C[C@H](C(=O)NC1Cc2ccccc2C1O)c1ccc(F)cc1 (single isomer, unassigned) [Example 62] |

| EC50 | Compound |
| --- | --- |
| 767 nM | C[C@H](C(=O)NC1Cc2ccccc2C1O)c1ccc(F)cc1 (single isomer, unassigned) [Example 63] |
| 47 nM | CC(C(=O)N[C@H]1Cc2ccccc2[C@@H]1N)c1ccc(Cl)cc1 (single isomer, unassigned) [Example 69] |
| 956 nM | CC(C(=O)N[C@H]1Cc2ccccc2[C@@H]1N)c1ccc(Cl)cc1 (single isomer, unassigned) [Example 70] |
| 45 nM | C[C@H](C(=O)NC1Cc2ccccc2C1N1CCOCC1)c1ccc(F)cc1 (single isomer, unassigned) [Example 73] |
| 288 nM | CC(F)(C(=O)N[C@H]1Cc2ccccc2[C@@H]1N)c1ccc(F)cc1 (single isomer, unassigned) [Example 76] |
| 2630 nM | CC(F)(C(=O)N[C@H]1Cc2ccccc2[C@@H]1N)c1ccc(F)cc1 (single isomer, unassigned) [Example 77] |
| 8 nM | C[C@H](C(=O)NC1Cc2ccccc2C1NCC(F)F)c1ccc(F)cc1 (single isomer, unassigned) [Example 84] |
| 54 nM | N[C@H]1c2ccccc2C[C@@H]1NC(=O)C(c1ccc(F)cc1)C1CC1 (single isomer, unassigned) [Example 96] |
| 807 nM | N[C@H]1c2ccccc2C[C@@H]1NC(=O)C(c1ccc(F)cc1)C1CC1 (single isomer, unassigned) [Example 97] |
| 6 nM | COC1c2ccccc2CC1NC(=O)[C@@H](NC(=O)C1CC1)c1ccc(F)cc1 (single isomer, unassigned) [Example 101] |
| 6 nM | COC1c2ccccc2CC1NC(=O)[C@@H](NC(=O)C1CC1)c1ccc(F)cc1 (single isomer, unassigned) [Example 102] |
| 81 nM | N[C@H]1c2ccccc2C[C@@H]1NC(=O)C(c1ccc(F)cc1F)N1CC(F)C1 (single isomer, unassigned) [Example 106] |
| 1220 nM | N[C@H]1c2ccccc2C[C@@H]1NC(=O)C(c1ccc(F)cc1F)N1CC(F)C1 (single isomer, unassigned) [Example 107] |
| 573 nM | N[C@H]1c2ccccc2C[C@@H]1NC(=O)C(c1ccc(F)cc1F)n1ncccc1=O (single isomer, unassigned) [Example 109] |
| 1150 nM | N[C@H]1c2ccccc2C[C@@H]1NC(=O)C(c1ccc(F)cc1F)n1ncccc1=O (single isomer, unassigned) [Example 110] |
| 181 nM | N[C@H]1c2ccccc2C[C@@H]1NC(=O)C(c1ccc(F)cc1)N1CC(F)C1 (single isomer, unassigned) [Example 115] |
| 241 nM | N[C@H]1c2ccccc2C[C@@H]1NC(=O)C(c1ccc(F)cc1)N1CC(F)C1 (single isomer, unassigned) [Example 116] |
| 10 nM | N[C@H]1c2ccccc2C[C@@H]1NC(=O)C(c1ccc(F)cc1)N1CC(F)C1 (single isomer, unassigned) [Example 117] |
| 2870 nM | N[C@H]1c2ccccc2C[C@@H]1NC(=O)C(c1ccc(F)cc1)N1CC(F)C1 (single isomer, unassigned) [Example 118] |
| 1050 nM | COC1c2ccccc2CC1NC(=O)C(c1ccc(F)cc1F)n1ncccc1=O (single isomer, unassigned) [Example 124, 2-(2,4-difluorophenyl)-N-(trans)-(1-methoxy-2,3-dihydro-1H-inden-2-yl)-2-(6-oxo-1,6-dihydropyridazin-1-yl)acetamide] |
| 1070 nM | COC1c2ccccc2CC1NC(=O)C(c1ccc(F)cc1F)n1ncccc1=O (single isomer, unassigned) [Example 125, 2-(2,4-difluorophenyl)-N-(trans)-(1-methoxy-2,3-dihydro-1H-inden-2-yl)-2-(6-oxo-1,6-dihydropyridazin-1-yl)acetamide] |

| Compound | EC50 |
| --- | --- |
| C[C@H](C(=O)NC1Cc2ccccc2C1N1CCCC1)c1ccc(F)cc1 (single isomer, unassigned) [Example 67] | 16 nM |
| C[C@H](C(=O)NC1Cc2ccccc2C1N1CCCC1)c1ccc(F)cc1 (single isomer, unassigned) [Example 68] | 28 nM |
